Assay results published in patent EP4722205A1, “HETEROCYCLIC COMPOUND AND NOXIOUS ARTHROPOD-CONTROLLING COMPOSITION CONTAINING SAME” (Sumitomo Chemical Company, Limited, priority 2023, dated 2024).

Columns and labels:
Format in all cases: in vivo
[1] = system: common house mosquitos (Culex pipiens pallens); assay: Test Method 12: mosquito larvae released into diluted solution; details: 24 h, last instar larvae, after 1 day, 25°C, read-out: controlling value
Protocol: (§1) The following tests in the test examples below were conducted at 25°C.
Into the diluted solution, 30 common house mosquitos (Culex pipiens pallens) at the last instar larval stage are released, and after 1 day, the state of the house mosquito larvae is examined, and the mortality of insects is calculated by the following equation. [formula]

[2] = system: cotton worm (Spodoptera litura); assay: Test Method 9: sprayed cabbage seedling, third instar cotton worm (Formulation example 5); details: 144 h, third instar larvae, after 6 days, 25°C, read-out: controlling value
Protocol: as §1
(§2) Cabbage (Brassicae oleracea) seedling (on the developmental stage of the third to fourth true leaf) is planted in a cup, and the diluted solutions are sprayed into the seedling at a ratio of 20 mL/seedling. Thereafter, ten (10) cotton worm (Spodoptera litura) at the third instar larval stage are released onto the seedling. After 6 days, the number of the surviving insects is counted, and the mortality of insects is calculated by the following equation. [formula]

[3] = system: cotton aphids (Aphis gossypii); assay: Test Method 11: foliar spray on cucumber seedling infested with cotton aphids (Formulation example 5); details: 120 h, spray 10 mL/seedling, examined after 5 days, 25°C, read-out: controlling value
[4] = system: diamondback moth (Plutella xylostella); assay: Test Method 4: sprayed cabbage leaves fed to second instar diamondback moth; details: 120 h, second instar larvae, after 5 days, 25°C, read-out: mortality of insects
Protocol: (§3) Next, an efficacy of the present compound on controlling harmful arthropods is shown by Test examples. The following tests in the test examples below were conducted at 25°C.
Test compounds are made to a formulation according to a similar method to that described in the Formulation example 1, and thereto is added water containing 0.03 v/v% of Shindain (registered trademark) to prepare a diluted solution containing a prescribed concentration of the test compound.
(§4) Cabbage (Brassicae oleracea) seedling (on the developmental stage of the second to third true leaf) is planted in a cup, and the diluted solutions are sprayed into the seedling at a ratio of 20 mL/seedling. Thereafter, the stem and leaf thereof are cut out and then is installed into a cup that is covered with filter paper on the bed of the cup. Five (5) diamondback moth (Plutella xylostella) at the second instar larval stage are released into the cup. After 5 days, the number of the surviving insects is counted, and the mortality of insects is calculated by the following equation. [formula]

[5] = system: cotton worm (Spodoptera litura); assay: Test Method 3: sprayed cabbage leaves fed to second instar cotton worm; details: 120 h, second instar larvae, after 5 days, 25°C, read-out: mortality of insects
Protocol: as §1
as §4, with “cotton worm (Spodoptera litura)” for “diamondback moth (Plutella xylostella)”

[6] = system: cotton aphids (Aphis gossypii); assay: Test Method 1: foliar spray on cucumber seedling infested with cotton aphids (Formulation example 1); details: 120 h, spray 10 mL/seedling, examined after 5 days, 25°C, read-out: controlling value
[7] = system: diamondback moth (Plutella xylostella); assay: Test Method 10: sprayed cabbage seedling, third instar diamondback moth (Formulation example 5); details: 144 h, third instar larvae, after 6 days, 25°C, read-out: controlling value
Protocol: as §1
as §2, with “diamondback moth (Plutella xylostella)” for “cotton worm (Spodoptera litura)”

[8] = system: housefly (Musca domestica); assay: Test Method 8: coated container contact test, housefly; details: 24 h, 40 mg/m^2, female adults, after one (1) day, 25°C, read-out: mortality of insects
Protocol: as §3
Acetone solution in which test compounds are adjusted to 800 ppm are prepared, and the solution is poured into a container having an internal volume of 20 mL, and the solution is coated uniformly on an inner face of the container such that the test compound is made to be 40 mg/m^2, and the container is then dried.
Five (5) housefly (Musca domestica) female adults are placed in the container, and the cup is covered with the lid. After the prescribed timing is passed, the state of the housefly is examined, and the mortality of insects is calculated by the following equation. [formula]

| Structure (SMILES) | mortality at 3.5 ppm [1] [%] | mortality at 200 ppm [2] [%] | mortality at 50 ppm [3] [%] | mortality at 200 ppm [3] [%] | mortality at 500 ppm [4] [%] | mortality at 500 ppm [5] [%] | mortality at 500 ppm [6] [%] | mortality at 50 ppm [7] [%] | mortality at 200 ppm [7] [%] | mortality at 50 ppm [2] [%] | mortality at 40 mg/m2 [8] [%] |
| --- | --- | --- | --- | --- | --- | --- | --- | --- | --- | --- | --- |
| CCS(=O)(=O)c1c(C(=O)N(C)c2nc3cccc(F)c3s2)nc2ccc(I)cn12 [compound 22] | ≥ 90 | ≥ 80 | ≥ 90 | ≥ 90 | ≥ 80 | ≥ 80 | ≥ 90 | ≥ 80 | ≥ 80 |  |  |
| CCS(=O)(=O)c1c(C(=O)N(C)c2nc3ccc(F)cc3s2)nc2ccc(I)cn12 [compound 23] | ≥ 90 | ≥ 80 | ≥ 90 | ≥ 90 | ≥ 80 | ≥ 80 | ≥ 90 | ≥ 80 |  | ≥ 80 |  |
| CCS(=O)(=O)c1c(C(=O)N(C)c2nc3cc(Cl)ccc3s2)nc2ccc(I)cn12 [compound 29] | ≥ 90 | ≥ 80 |  | ≥ 90 | ≥ 80 | ≥ 80 | ≥ 90 | ≥ 80 | ≥ 80 | ≥ 80 |  |
| CCS(=O)(=O)c1c(C(=O)N(C)c2nc3ccccc3s2)nc2ccc(I)cn12 [compound 31] | ≥ 90 | ≥ 80 | ≥ 90 | ≥ 90 | ≥ 80 | ≥ 80 | ≥ 90 | ≥ 80 | ≥ 80 | ≥ 80 |  |
| CCS(=O)(=O)c1c(C(=O)N(C)c2nc3c(F)cc(F)cc3s2)nc2ccc(I)cn12 [compound 35] | ≥ 90 | ≥ 80 |  |  | ≥ 80 | ≥ 80 | ≥ 90 | ≥ 80 | ≥ 80 | ≥ 80 |  |
| CCS(=O)(=O)c1c(C(=O)N(C)c2nc3ccc(F)cc3o2)nc2ccc(I)cn12 [compound 40] | ≥ 90 |  |  | ≥ 90 | ≥ 80 |  | ≥ 90 |  |  |  |  |
| CCS(=O)(=O)c1c(C(=O)N(C)c2nc3cc(Cl)ccc3o2)nc2ccc(I)cn12 [compound 41] | ≥ 90 |  | ≥ 90 | ≥ 90 | ≥ 80 |  | ≥ 90 | ≥ 80 | ≥ 80 |  |  |
| CCS(=O)(=O)c1c(C(=O)N(C)c2nc3cc(F)c(F)cc3o2)nc2ccc(I)cn12 [compound 42] | ≥ 90 |  |  |  |  | ≥ 80 | ≥ 90 |  |  |  |  |
| CCS(=O)(=O)c1c(C(=O)N(C)c2nc3cc(F)c(F)cc3s2)nc2ccc(Br)cn12 [compound 43] |  | ≥ 80 |  | ≥ 90 | ≥ 80 | ≥ 80 |  |  |  | ≥ 80 | ≥ 80 |
| CCS(=O)(=O)c1cccnc1C(=O)N(C)c1nc2cc(C(F)(F)F)ccc2n1C [compound 56] | ≥ 90 |  |  |  | ≥ 80 |  | ≥ 90 |  |  |  |  |
| CCSc1c(C(=O)N(C)c2nc3cc(F)ccc3n2C)nc2ccc(I)cn12 [compound 70] | ≥ 90 |  | ≥ 90 | ≥ 90 |  |  | ≥ 90 |  |  |  |  |
| CCS(=O)(=O)c1c(C(=O)N(C)c2nc3ncc(F)cc3s2)nc2ccc(I)cn12 [compound 76] | ≥ 90 | ≥ 80 |  | ≥ 90 | ≥ 80 | ≥ 80 | ≥ 90 | ≥ 80 | ≥ 80 | ≥ 80 |  |
| CCS(=O)(=O)c1cc(-c2ccccn2)cnc1C(=O)N(C)c1nc2cc(F)c(F)cc2s1 [compound 109] | ≥ 90 | ≥ 80 | ≥ 90 | ≥ 90 | ≥ 80 | ≥ 80 | ≥ 90 | ≥ 80 | ≥ 80 | ≥ 80 |  |
| CCS(=O)(=O)c1cc(-c2ncccn2)cnc1C(=O)N(C)c1nc2cc(F)c(F)cc2s1 [compound 111] | ≥ 90 | ≥ 80 | ≥ 90 | ≥ 90 | ≥ 80 | ≥ 80 | ≥ 90 | ≥ 80 | ≥ 80 | ≥ 80 |  |
| CCS(=O)(=O)c1cc(C2CC2)cnc1C(=O)N(C)c1nc2cc(F)c(F)cc2s1 [compound 115] | ≥ 90 | ≥ 80 | ≥ 90 | ≥ 90 | ≥ 80 | ≥ 80 | ≥ 90 | ≥ 80 | ≥ 80 | ≥ 80 |  |
| CCOc1cnc(C(=O)N(C)c2nc3cc(F)c(F)cc3s2)c(S(=O)(=O)CC)c1 [compound 125] | ≥ 90 | ≥ 80 | ≥ 90 | ≥ 90 | ≥ 80 | ≥ 80 | ≥ 90 | ≥ 80 | ≥ 80 | ≥ 80 |  |
| CCS(=O)(=O)c1ccc(-c2ncccn2)nc1C(=O)N(C)c1nc2cc(F)c(F)cc2s1 [compound 130] | ≥ 90 | ≥ 80 | ≥ 90 | ≥ 90 | ≥ 80 | ≥ 80 | ≥ 90 | ≥ 80 | ≥ 80 | ≥ 80 |  |
| CCS(=O)(=O)c1ccc(-n2cncn2)nc1C(=O)N(C)c1nc2cc(F)c(F)cc2s1 [compound 131] | ≥ 90 | ≥ 80 |  |  | ≥ 80 | ≥ 80 |  | ≥ 80 | ≥ 80 |  |  |
| CCS(=O)(=O)c1ccc(NC)nc1C(=O)N(C)c1nc2cc(F)c(F)cc2s1 [compound 134] | ≥ 90 | ≥ 80 | ≥ 90 | ≥ 90 | ≥ 80 | ≥ 80 | ≥ 90 | ≥ 80 | ≥ 80 | ≥ 80 |  |
| CCS(=O)(=O)c1ccc(N(C)C)nc1C(=O)N(C)c1nc2cc(F)c(F)cc2s1 [compound 135] | ≥ 90 |  | ≥ 90 | ≥ 90 | ≥ 80 | ≥ 80 |  | ≥ 80 | ≥ 80 |  |  |
| CCS(=O)(=O)c1c(C(=O)N(C)c2nc3cc(F)c(F)cc3s2)nn(C)c1C1CC1 [compound 144] | ≥ 90 |  |  | ≥ 90 | ≥ 80 | ≥ 80 | ≥ 90 | ≥ 80 | ≥ 80 |  |  |
